Assay results taken from patent US8258177B2, “4-((phenoxyalkyl)thio)-phenoxyacetic acids and analogs” (Janssen Pharmaceutica, N.V., priority 2003, dated 2012).
Several values for one entry are separate records, joined by “and”; a condition that tells them apart may be missing. Equal entries are not always repeated. Where two headings read alike, the source gives them in different places.

Legend:
PPAR delta = biological target: T1, PPAR delta (Homo sapiens, UniProt Q03181); assay: Transfection assay for PPAR receptors (PPAR-Gal4 / Gal4-Luciferase reporter in HEK293 cells); type: cell-based; settings: multiple values = multiple measurements
T1 sequence (Q03181 211-441 limits assumed): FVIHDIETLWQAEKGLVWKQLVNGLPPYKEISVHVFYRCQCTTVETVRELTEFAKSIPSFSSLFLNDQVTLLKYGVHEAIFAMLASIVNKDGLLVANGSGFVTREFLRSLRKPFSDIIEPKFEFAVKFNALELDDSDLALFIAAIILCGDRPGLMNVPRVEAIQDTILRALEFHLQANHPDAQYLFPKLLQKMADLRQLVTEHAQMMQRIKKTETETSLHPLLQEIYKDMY
Method: Transfection Assay Method for PPAR Receptors
HEK293 cells were grown in DMEM/F-12 Media supplemented with 10% FBS and glutamine (GIBCOBRL). The cells were co-transfected with DNA for PPAR-Gal4 (PPARα, γ or δ) receptor and Gal4-Luciferase Reporter using the DMRIE-C Reagent. On the following day, the medium was replaced with 5% Charcoal treated FBS growth medium. After six hours, cells were trypsinized and seeded at a density of 50,000 cell/well into 96 well plates and incubated overnight at 37° C. in a 5% CO2 incubator. Cells were then treated with test compounds or vehicle and incubated for 24 hours at 37° C. in a 5% CO2 incubator. Luciferase activity was assayed using the Steady-Glo Luciferase Assay Kit from Promega. […] Steady-Glo Luciferase Assay Kit was purchased from Promega Part# E254B.

[1] = test system: differentiated THP-1 monocytes; settings: cited from earlier work
[2] = HEK293 cells co-transfected with PPAR-Gal4 receptor and Gal4-Luciferase reporter, 24 hours, read-out: EC50 (PPAR delta)
[3] = value printed in running text after characterisation data, read-out: PPARdleta EC50

SMILES | EC50 (PPAR delta; [2]) | also measured
Cc1cc(SCC(F)(F)COc2ccc(C(F)(F)F)cc2)ccc1OCC(=O)O [Compound 25, {4-[2,2-Difluoro-3-(4-trifluoromethyl-phenoxy)-propylsulfanyl]-2-methyl-phenoxy}-acetic acid] | 147 nM | 
C=C(COc1ccc(Cl)c(Cl)c1)CSc1ccc(OCC(=O)O)c(C)c1 [Compound 6, {4-[2-(3,4-Dichloro-phenoxymethyl)-allylsulfanyl]-2-methyl-phenoxy}-acetic acid] | 56.6 nM and 42.9 nM | 
C=C(COc1ccc(Cl)cc1Cl)CSc1ccc(OCC(=O)O)c(C)c1 [Compound 7, {4-[2-(2,4-Dichloro-phenoxymethyl)-allylsulfanyl]-2-methyl-phenoxy}-acetic acid] | 138 nM | 
C=C(CSc1ccc(OCC(=O)O)c(C)c1)Oc1ccc(C(F)(F)F)cc1 [Compound 21, {2-Methyl-4-[2-(4-trifluoromethyl-phenoxy)-allylsulfanyl]-phenoxy}-acetic acid] | > 1000 nM | 
Cc1cc(SCC2(COc3ccc(C(F)(F)F)cc3)COC(C)(C)O2)ccc1OCC(=O)O (centres unmarked) [Compound 27, {4-[2,2-Dimethyl-4-(4-trifluoromethyl-phenoxymethyl)-[1,3]dioxolan-4-ylmethylsulfanyl]-2-methyl-phenoxy}-acetic acid] | 119 nM | 
C=C(COc1ccc(N(C)C)cc1)CSc1ccc(OCC(=O)O)c(C)c1 [Compound 10, {4-[2-(4-Dimethylamino-phenoxymethyl)-allylsulfanyl]-2-methyl-phenoxy}-acetic acid] | 238 nM | 
C=C(COc1ccc(C(F)(F)F)cc1)CSc1ccc(CC(=O)O)cc1Cl [Compound 22, {3-Chloro-4-[2-(4-trifluoromethyl-phenoxymethyl)-allylsulfanyl]-phenyl}-acetic acid] | 28.9 nM and 68.3 nM | 
C=C(COc1ccc(C(C)=O)c(O)c1CCC)CSc1ccc(OCC(=O)O)c(C)c1 [{4-[2-(4-acetyl-3-hydroxy-2-propyl-phenoxymethyl)-allylsulfanyl]-2-methyl-phenoxy}-acetic acid] |  | EC50 (PPAR delta; [3]): 13 nM and 18 nM
C=C(COc1ccc(C(F)(F)F)cc1)COc1ccc(OCC(=O)O)c(C)c1 [Compound 29] | 249 nM | 
C=C(COc1ccccc1)CSc1ccc(OCC(=O)O)c(C)c1 [Compound 3, [2-Methyl-4-(2-phenoxymethyl-allylsulfanyl)-phenoxy]-acetic acid] | 711 nM | 
C=C(COc1ccc(C(F)(F)F)cn1)CSc1ccc(OCC(=O)O)c(C)c1 [[2-methyl-4-[[2-[[[5-(trifluoromethyl)-2-pyridinyl]oxy]methyl]-2-propenyl]thio]phenoxy]-acetic acid] |  | EC50 (PPAR delta; [3]): > 3000 nM
CCCC(CCC)(COc1ccc(C(F)(F)F)cc1)CSc1ccc(OCC(=O)O)c(C)c1 [Compound 24, {2-Methyl-4-[2-propyl-2-(4-trifluoromethyl-phenoxymethyl)-pentylsulfanyl]phenoxy}-acetic acid] | 9.7 nM and 7.4 nM | 
C=C(COc1ccc(OC(F)(F)F)cc1)CSc1ccc(OCC(=O)O)c(C)c1 [Compound 4, {2-Methyl-4-[2-(4-trifluoromethoxy-phenoxymethyl)-allylsulfanyl]-phenoxy}-acetic acid] | 29 nM and 27.8 nM | 
C=C(COc1ccc(OC)cc1)CSc1ccc(OCC(=O)O)c(C)c1 [Compound 9, {4-[2-(4-Methoxy-phenoxymethyl)-allylsulfanyl]-2-methyl-phenoxy}-acetic acid] | 216 nM | 
C=C(COc1ccc(C(F)(F)F)cc1)C[S+]([O-])c1ccc(OCC(=O)O)c(C)c1 (centres unmarked) [[2-methyl-4-[[2-[[4-(trifluoromethyl)phenoxy]methyl]-2-propenyl]sulfinyl]phenoxy]-acetic acid] |  | EC50 (PPAR delta; [3]): > 3000 nM
Cc1cc(SCC(=Cc2cccc3ccccc23)COc2ccc(C(F)(F)F)cc2)ccc1OCC(=O)O [Compound 19, {2-Methyl-4-[3-naphthalen-1-yl-2-(4-trifluoromethyl-phenoxymethyl)-allylsulfanyl]-phenoxy}-acetic acid] | 67.7 nM and 49.7 nM | 
CC(C)=C(COc1ccc(C(F)(F)F)cc1)CSc1ccc(OCC(=O)O)c(C)c1 [Compound 15, {2-Methyl-4-[3-methyl-2-(4-trifluoromethyl-phenoxymethyl)-but-2-enylsulfanyl]-phenoxy}-acetic acid] | 22.7 nM and 22.1 nM | 
CCC(O)(COc1ccc(C(F)(F)F)cc1)CSc1ccc(OCC(=O)O)c(C)c1 (centres unmarked) [Compound 28, {4-[2-Hydroxy-2-(4-trifluoromethyl-phenoxymethyl)butylsulfanyl]-2-methyl-phenoxy}-acetic acid] | 122 nM | 
Cc1cc(SCC(=CC#N)COc2ccc(C(F)(F)F)cc2)ccc1OCC(=O)O [Compound 17, {4-[3-Cyano-2-(4-trifluoromethyl-phenoxymethyl)-allylsulfanyl]-2-methyl-phenoxy}-acetic acid] | 32.1 nM and 38.7 nM | 
Cc1cc(SCc2sc(-c3ccc(C(F)(F)F)cc3)nc2C)ccc1OCC(=O)O [GW501516] |  | ABCA1 mRNA expression [1]: induced ABCA1 mRNA expression; cholesterol efflux [1]: enhanced cholesterol efflux
C=C(COc1ccc(C(F)(F)F)cc1)CSc1ccc(Cl)cc1OCC(=O)O [[5-chloro-2-[[2-[[4-(trifluoromethyl)phenoxy]methyl]-2-propenyl]thio]phenoxy]-acetic acid] |  | EC50 (PPAR delta; [3]): > 3000 nM
C=C(CCSc1ccc(OCC(=O)O)c(C)c1)Oc1ccc(C(F)(F)F)cc1 [Compound 20, {2-Methyl-4-[3-(4-trifluoromethyl-phenoxy)-but-3-enylsulfanyl]phenoxy}-acetic acid] | 194 nM | 
Cc1cc(SCC(COc2ccc(C(F)(F)F)cc2)=C(F)F)ccc1OCC(=O)O [Compound 16, {4-[3,3-Difluoro-2-(4-trifluoromethyl-phenoxymethyl)-allylsulfanyl]-2-methyl-phenoxy}-acetic acid] | 87.8 nM and 51.4 nM | 
C=C(COc1ccc(Cl)cc1)CSc1ccc(OCC(=O)O)c(C)c1 [Compound 5, {4-[2-(4-Chloro-phenoxymethyl)-allylsulfanyl]-2-methyl-phenoxy}-acetic acid] | 79.2 nM and 51.8 nM | 
C=C(COc1ccc(C(F)(F)F)cc1)CSc1ccc(OCC(=O)O)c(Cl)c1 [Compound 11, {2-Chloro-4-[2-(4-trifluoromethyl-phenoxymethyl)-allylsulfanyl]-phenoxy}-acetic acid] | 45.1 nM and 48.3 nM | 
